Experimental data reported in patent US4529737A, “Analgesic and anti-inflammatory arylalkanoic acid phthalidyl esters and pharmaceutical compositions thereof” (priority 1979, dated 1985).
Like-named read-outs stand apart in the source and are kept apart here.

How the values were obtained:
[1] = tail compression test in mice (analgesic activity); type: in vivo, mouse; parameters: unit not given here; settings: values marked * (I, II, III, VII) are statistically significant
Text: The tail compression test has been carried out in mice according to the method described by C. Bianchi (Brit. J. Pharmacol., 11, 104; 1956) by determining the time in seconds between the algic stimulation and the reaction of the mouse.

[2] = carrageenin-induced rat paw edema test (anti-inflammatory activity); type: in vivo; parameters: unit not given here; settings: oral, one hour before 2% carrageenin, paw volume 5 hours after, values marked * (I, V, VI, VII, VIII) are statistically significant
Text: For the determination of the anti-inflammatory activity, the carrageenin-induced rat paw edema test, as a modification of the method reported by C. A. Winth et al. (Proc. Soc. Exptl. Biol. Med., 111, 544; 1962) has been used. This method involves the reduction of the edema caused by the injection of a 2% carrageenin solution in the rat paw. The compounds under examination have been administered by oral route one hour before the injection of the edemigenic agent. The volume of the rat paw has been measured by a plethismometer before and 5 hours after the injection of the carrageenin.

[3] = ulcerogenic activity in rats (DU50); settings: rat, in vivo
Text: The ulcerogenic activity is expressed as DU50 in rats according to the method described by Dabrodie et al (Science, 170, 183; 1970).

[4] = in vivo; settings: mouse
[5] = in vivo; settings: rat
[6] = head DL50*: data statistically significant
[7] = rats, head DU50*: data statistically significant, read-out: DU50 ulcerogenic activity

Row | SMILES | Analgesic activity DE50 [1] | Anti-inflammatory activity DE50 [2] | TD50 [3] | LD50 [4] | LD50 [5] | TD50 [3, 7] | DL50 acute toxicity, rat [6]
1 | O=C(O)CCC(=O)c1ccc(-c2ccccc2)cc1 [Compound VII, 4-(4-biphenylyl)-4-oxobutyric acid, reference compound] | 4.02 | 30.53 | 78.7 mg/kg | – | – | – | –
2 | O=C(CCC(=O)c1ccc(-c2ccccc2)cc1)OC1OC(=O)c2ccccc21 (stereo not drawn) [Compound VIIA, phthalidyl 4-(4-biphenylyl)-4-oxobutyrate] | 2.95 | 20.08 | 146 mg/kg | 1400 mg/kg | 1380 mg/kg | – | –
3 | COc1ccc2cc(C(C)C(=O)OC3OC(=O)c4ccccc43)ccc2c1 (stereo not drawn) [Compound IIA, phthalidyl d-2-(6-methoxy-2-naphthyl)propionate] | 5.81 | 14.82 | 133 mg/kg | 2140 mg/kg | 1060 mg/kg | – | –
4 | C=CCOc1ccc(CC(=O)O)cc1Cl [Compound V, 4-allyloxy-3-chlorophenylacetic acid, reference compound] | 2.43 | 1058.45 | 214 mg/kg | – | – | – | –
5 | CC(C(=O)O)c1ccc(N2Cc3ccccc3C2=O)cc1 (stereo not drawn) [Compound IV, 2-[4-(1-oxo-2-isoindolinyl)phenyl]propionic acid, reference compound] | 2.58 | 5.45 | 51.1 mg/kg | 536 mg/kg | 62.3 mg/kg | – | –
6 | CC(C)Cc1ccc(C(C)C(=O)OC2OC(=O)c3ccccc32)cc1 (stereo not drawn) [Compound IA, phthalidyl 2-(4-isobutylphenyl)propionate] | 2.08 | 4.30 | 144 mg/kg | 1540 mg/kg | 2180 mg/kg | – | –
7 | CC(C(=O)OC1OC(=O)c2ccccc21)c1ccc(N2Cc3ccccc3C2=O)cc1 (stereo not drawn) [Compound IVA, phthalidyl 2-[4-(1-oxo-2-isoindolinyl)phenyl]propionate] | 2.18 | 4.45 | 116 mg/kg | 987 mg/kg | 234 mg/kg | – | –
8 | COc1ccc2cc([C@H](C)C(=O)O)ccc2c1 [Compound II, d-2-(6-methoxy-2-naphthyl)propionic acid, reference compound] | 21.90 | 16.36 | – | – | – | 78.7 mg/kg | –
9 | CC(C(=O)OC1OC(=O)c2ccccc21)c1cccc(C(=O)c2ccccc2)c1 (stereo not drawn) [Compound IIIA, phthalidyl 2-(3-benzoylphenyl)propionate] | 1.34 | 5.15 | 76.7 mg/kg | 514 mg/kg | 342 mg/kg | – | –
10 | O=C(O)Cc1ccc(-c2ccccc2)cc1 [Compound VIII, 4-biphenylylacetic acid, reference compound] | 3.07 | 21.79 | 65.3 mg/kg | 750 mg/kg | 635 mg/kg | – | –
11 | CC(C)Cc1ccc(C(C)C(=O)O)cc1 (stereo not drawn) [Compound I, 2-(4-isobutylphenyl)propionic acid, reference compound] | 5.28 | 59.14 | 85.9 mg/kg | – | – | – | 1480.00 mg/kg
12 | O=C(Cc1ccc(-c2ccccc2)cc1)OC1OC(=O)c2ccccc21 (stereo not drawn) [Compound VIIIA, phtalidyl 4-biphenylylacetate] | 2.78 | 13.28 | 186 mg/kg | 1410 mg/kg | 1170 mg/kg | – | –
13 | O=C(Cc1ccccc1Nc1c(Cl)cccc1Cl)OC1OC(=O)c2ccccc21 (stereo not drawn) [Compound VIA, phtalidyl 2-(2,6-dichloroanilino)phenylacetate] | 4.33 | 144.21 | 26.1 mg/kg | 593 mg/kg | 342 mg/kg | – | –
14 | O=C(O)Cc1ccccc1Nc1c(Cl)cccc1Cl [Compound VI, 2-(2,6-dichloroanilino)phenylacetic acid, reference compound] | 3.81 | 189.54 | – | – | – | 13.1 mg/kg | –
15 | CC(C(=O)O)c1cccc(C(=O)c2ccccc2)c1 (stereo not drawn) [Compound III, 2-(3-benzoylphenyl)propionic acid, reference compound] | 3.01 | 4.36 | – | – | – | 31.5 mg/kg | –
16 | C=CCOc1ccc(CC(=O)OC2OC(=O)c3ccccc32)cc1Cl (stereo not drawn) [Compound VA, phthalidyl 4-allyloxy-3-chlorophenylacetate] | 2.50 | 117.34 | 380 mg/kg | 2060 mg/kg | 1770 mg/kg | – | –
